One assay has as its target T1, Enkephalinase (Rattus norvegicus, UniProt P07861).
T1 construct: The enzyme is extracted from the microvilli fraction by using Triton X-100; from tissue; host or cells: rat kidney (microvilli fraction)
T1 sequence (P07861 1-750): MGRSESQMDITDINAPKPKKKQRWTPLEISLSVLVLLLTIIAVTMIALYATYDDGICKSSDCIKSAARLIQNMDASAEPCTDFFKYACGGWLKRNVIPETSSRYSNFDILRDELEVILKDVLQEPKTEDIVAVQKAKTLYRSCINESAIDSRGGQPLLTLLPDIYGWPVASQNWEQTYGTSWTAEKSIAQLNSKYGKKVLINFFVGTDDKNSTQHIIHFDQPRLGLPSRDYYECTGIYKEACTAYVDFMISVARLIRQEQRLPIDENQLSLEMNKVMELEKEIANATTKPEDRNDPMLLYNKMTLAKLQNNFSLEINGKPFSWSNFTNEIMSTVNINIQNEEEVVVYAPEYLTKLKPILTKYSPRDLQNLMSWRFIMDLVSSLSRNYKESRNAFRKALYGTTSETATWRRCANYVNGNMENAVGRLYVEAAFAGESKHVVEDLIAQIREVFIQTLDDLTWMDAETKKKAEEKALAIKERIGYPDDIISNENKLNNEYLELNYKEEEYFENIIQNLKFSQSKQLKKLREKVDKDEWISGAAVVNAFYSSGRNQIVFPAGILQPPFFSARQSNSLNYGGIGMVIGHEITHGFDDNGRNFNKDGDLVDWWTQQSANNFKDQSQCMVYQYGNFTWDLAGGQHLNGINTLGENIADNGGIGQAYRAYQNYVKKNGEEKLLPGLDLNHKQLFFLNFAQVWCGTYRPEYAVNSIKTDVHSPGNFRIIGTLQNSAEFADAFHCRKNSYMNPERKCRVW
In words: Enkephalinase inhibition, fluorometric enzyme assay. Particulars: enzyme partially purified from rat kidney; 50mM HEPES buffer (pH 7.4); 12 µM substrate dansyl-D-AlaGly(p-nitro)PheGly; 25°C. Format: biochemical. The source says:
Enkephalinase is partially purified from rat kidney. The enzyme is extracted from the microvilli fraction by using Triton X-100 according to the method of Malfroy and Schwartz [J.Biol.Chem. 259, 14365-14370 (1984)] or by using a proteolytic treatment according to the method of Almenoff and Orlowski [Biochem. 22, 590-599 (1983)]. The enzyme is further purified by anion exchange chromatography (Mono Q™ column, Pharmacia) using a Pharmacia FPLC system. The enzyme activity may be measured by the fluorometric methods of Florentin et al. [Anal.Biochem. 141, 62-69 (1984)] or of Almenoff and Orlowski [J.Neurochemistry 42, 151-157 (1984)]. The enzyme is assayed in 50mM HEPES buffer (pH 7.4) in a 3.0 mL reaction volume containing 12 µM of the substrate dansyl-D-AlaGly(p-nitro)PheGly (Km=40µM) at 25°C. The substrate (and inhibitor) is added from a concentrated stock solution in DMSO (up to 0.1 mL DMSO final volume). The enzyme in a small volume (approximately 0.1 µg of FPLC purified protein) is added to initiate the reaction and the rate of fluorescense increase is recorded continuously using a fluorometer (excitation at 339nm, emission at 562nm).

The target of a further assay is ACE (Homo sapiens, UniProt P12821). In words: ACE inhibition, spectrophotometric enzyme assay. It is filed as biochemical. The note with it: spectrophotometric substrate of Holmquist et al.; buffer system of Ryan. The source says:
The enzymatic activity of ACE is monitored using the spectrophotometric substrate described by Holmquist et al. [Anal.Biochem. 95, 540-548 (1979)] and the buffer system described by Ryan [Methods of Enzymatic Analysis, 3rd ed., H. U. Bergmeyer, editor; vol. V, Verlag Chemie, Weinheim, 1983, pp. 20-34].

ACE, sequence (P12821 30-1306, species assumed): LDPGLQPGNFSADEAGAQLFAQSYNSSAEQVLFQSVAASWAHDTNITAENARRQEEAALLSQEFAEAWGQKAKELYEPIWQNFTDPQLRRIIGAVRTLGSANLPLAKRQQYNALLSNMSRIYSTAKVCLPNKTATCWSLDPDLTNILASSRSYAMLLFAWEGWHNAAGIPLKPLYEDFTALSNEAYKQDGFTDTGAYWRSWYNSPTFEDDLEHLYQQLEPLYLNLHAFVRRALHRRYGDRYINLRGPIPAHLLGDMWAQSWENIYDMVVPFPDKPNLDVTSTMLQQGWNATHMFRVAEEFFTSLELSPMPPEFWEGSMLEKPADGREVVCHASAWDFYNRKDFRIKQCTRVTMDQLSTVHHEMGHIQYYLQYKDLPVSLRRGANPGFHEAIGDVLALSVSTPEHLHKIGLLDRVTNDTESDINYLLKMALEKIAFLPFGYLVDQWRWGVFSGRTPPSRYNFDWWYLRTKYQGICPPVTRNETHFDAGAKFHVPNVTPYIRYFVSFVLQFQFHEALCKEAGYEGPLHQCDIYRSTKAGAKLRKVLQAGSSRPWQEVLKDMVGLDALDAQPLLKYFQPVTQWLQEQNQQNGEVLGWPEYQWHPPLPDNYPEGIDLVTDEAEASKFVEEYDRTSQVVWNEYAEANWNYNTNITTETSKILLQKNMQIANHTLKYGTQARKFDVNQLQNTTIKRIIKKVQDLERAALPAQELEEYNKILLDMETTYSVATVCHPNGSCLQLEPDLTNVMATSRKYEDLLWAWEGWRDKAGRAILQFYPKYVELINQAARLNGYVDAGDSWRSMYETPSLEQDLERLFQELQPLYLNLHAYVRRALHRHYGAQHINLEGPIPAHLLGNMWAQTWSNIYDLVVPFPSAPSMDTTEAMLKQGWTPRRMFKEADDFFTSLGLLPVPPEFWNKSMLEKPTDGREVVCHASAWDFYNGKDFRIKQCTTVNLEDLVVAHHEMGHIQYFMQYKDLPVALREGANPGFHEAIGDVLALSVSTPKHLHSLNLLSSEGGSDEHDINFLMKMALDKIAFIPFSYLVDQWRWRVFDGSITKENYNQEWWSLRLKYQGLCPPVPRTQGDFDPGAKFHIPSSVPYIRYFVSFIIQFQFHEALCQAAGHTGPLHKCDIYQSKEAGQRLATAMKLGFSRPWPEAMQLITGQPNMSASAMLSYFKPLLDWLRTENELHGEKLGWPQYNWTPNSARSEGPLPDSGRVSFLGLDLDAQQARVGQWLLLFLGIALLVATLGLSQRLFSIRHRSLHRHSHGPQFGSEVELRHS

A word on the Ki: it is the dissociation constant of the complex between target and ligand, obtained from inhibition or displacement. Low readings indicate tighter binding, high ones weaker binding. At Enkephalinase, `O=C(O)CC1(C(=O)N[C@H]2Cc3ccccc3[C@H]3CCC[C@@H](C(=O)O)N3C2=O)CCCC1` (relative stereo) [100,137, [4S-[4α, 7α(R*), 12bβ]]-7-[(1-Carboxymethyl-cyclopent-1-yl)carbonylamino]-1,2,3,4,6,7,8,12b-octahydro-6-oxopyrido[2,1-a][2]benzazepine-4-carboxylic acid] gave a Ki of 400 pM.

Consider `O=C(O)CC1(C(=O)N[C@H]2Cc3ccccc3[C@H]3CCC[C@@H](C(=O)O)N3C2=O)Cc2ccccc2C1` (relative stereo) [102,353, [4S-[4α, 7α(R*), 12bβ]]-7-[(2-Carboxymethyl-indan-2-yl)carbonylamino]-1,2,3,4,6,7,8,12b-octahydro-6-oxopyrido[2,1-a][2]benzazepine-4-carboxylic acid], for which the Ki was less than 200 pM on Enkephalinase and less than 104000 pM on ACE.
